According to ChEMBL document CHEMBL4190398, “Detailed Exploration around 4-Aminoquinolines Chemical Space to Navigate the Lysine Methyltransferase G9a and DNA Methyltransferase Biological Spaces” (J Med Chem, 2018):

Key:
THLE-2 = assay: Cytotoxicity against human THLE2 cells assessed as reduction in cell viability after 72 hrs by MTS assay; assay type: cell-based; conditions: thle-2, 72 h
[1] = Metabolic stability in human liver microsomes assessed as parent compound remaining at 1 uM preincubated for 10 mins followed by NADP addition measured after 20 mins by LC-MS/MS analysis; assay type: ADME, microsome; conditions: read-out: Stability
[2] = Metabolic stability in mouse liver microsomes assessed as parent compound remaining at 1 uM preincubated for 10 mins followed by NADP addition measured after 20 mins by LC-MS/MS analysis; assay type: ADME, microsome; conditions: read-out: Stability

COc1cc2c(NC3CCC34CCN(C)CC4)cc(-c3ccc(C)o3)nc2cc1OCCCN1CCCC1 (stereo not drawn)
LC50 (THLE-2): 731 nM | remaining at 20 min, 1 µM [1]: 80.4% | remaining at 20 min, 1 µM [2]: 53.3%

CCc1ccc(-c2cc(NC3CCC34CCN(C)CC4)c3cc(OC)c(OCCCN4CCCC4)cc3n2)o1 (stereo not drawn)
LC50 (THLE-2): 517 nM

COc1cc2c(NC3C4CCC3CN(C)C4)cc(-c3ccc(C)o3)nc2cc1OCCCN1CCCC1 (stereo not drawn)
LC50 (THLE-2): 527 nM

COc1cc2c(NC3CC4(CCN(C)CC4)C3)cc(-c3ccc(C)o3)nc2cc1OCC1CCN(C)CC1
LC50 (THLE-2): 2530 nM

CCc1ccc(-c2cc(NC3CCN(C)CC3)c3cc(OC)c(OCCCN4CCCCC4)cc3n2)o1
LC50 (THLE-2): 1380 nM

CCc1ccc(-c2cc(NC3CCN(C)CC3)c3cc(OC)c(OCCCN4CCCC4)cc3n2)o1
LC50 (THLE-2): 2320 nM

COc1cc2c(NCC3CCN(C(C)C)CC3)cc(-c3ccc(C)o3)nc2cc1OCCCN1CCCC1
LC50 (THLE-2): 777 nM

COc1cc2c(NC3CCC34CCN(C)C4)cc(-c3ccc(C)o3)nc2cc1OCCCN1CCCC1 (stereo not drawn)
LC50 (THLE-2): 1980 nM

CCc1ccc(-c2cc(NCC3CCN(C)CC3)c3cc(OC)c(OCCCN4CCCC4)cc3n2)o1
LC50 (THLE-2): 954 nM | remaining at 20 min, 1 µM [1]: 69% | remaining at 20 min, 1 µM [2]: 59.1%

COc1cc2c(NC3CCN(C)C(=O)C3)cc(-c3ccc(C)o3)nc2cc1OCCCN1CCCC1 (stereo not drawn)
LC50 (THLE-2): 7950 nM | remaining at 20 min, 1 µM [1]: 82.7% | remaining at 20 min, 1 µM [2]: 71.9%

CCc1ccc(-c2cc(NC3CCN(C)CC3)c3cc(OC)c(OCCCN4CCC5(CC5)C4)cc3n2)o1
LC50 (THLE-2): 2040 nM

Cc1ccc(-c2cc(NC3CCN(C)CC3)c3cc(Cl)c(OCCCN4CCCC4)cc3n2)o1
LC50 (THLE-2): 2310 nM | remaining at 20 min, 1 µM [1]: 81.7% | remaining at 20 min, 1 µM [2]: 81.7%

COc1cc2c(NC3CC4(CCN(C)CC4)C3)cc(-c3ccc(C)o3)nc2cc1OCCCN1CCCC1
LC50 (THLE-2): 992 nM | remaining at 20 min, 1 µM [1]: 68.6% | remaining at 20 min, 1 µM [2]: 40.6%

COc1cc2c(NC3CC4CCC(C3)N4C)cc(-c3ccc(C)o3)nc2cc1OCCCN1CCCC1 (stereo not drawn)
LC50 (THLE-2): 4150 nM | remaining at 20 min, 1 µM [1]: 60.3% | remaining at 20 min, 1 µM [2]: 43.9%

CCc1ccc(-c2cc(NCC3C4CCC3CN(C)C4)c3cc(OC)c(OCCCN4CCCC4)cc3n2)o1 (stereo not drawn)
LC50 (THLE-2): < 164 nM

COc1cc2c(NC3CCN(C)CC3)cc(-c3ccc(C)o3)nc2cc1OC1CC2(C1)CN(C)C2
LC50 (THLE-2): 698 nM | remaining at 20 min, 1 µM [1]: 49.8% | remaining at 20 min, 1 µM [2]: 43.3%

COc1cc2c(NC3CCN(C)CC3)cc(-c3ccc(C)o3)nc2cc1OCC1CCN(C)CC1
LC50 (THLE-2): 1030 nM

COc1cc2c(NC3CCN(C)CC3)cc(-c3ccc(C)o3)nc2cc1OCCCN1CCCC1
LC50 (THLE-2): 1780 nM

COc1cc2c(NC3CC4(CCN(C(C)C)CC4)C3)cc(-c3ccc(C)o3)nc2cc1OCCCN1CCCC1
LC50 (THLE-2): 841 nM

CCc1ccc(-c2cc(NC3CCN(C)CC3)c3cc(OC)c(OCCCN(C)C)cc3n2)o1
LC50 (THLE-2): 3520 nM

COc1cc2c(NC3CCN(C)CC3)cc(-c3ccc(C)o3)nc2cc1OCC1CCNCC1
LC50 (THLE-2): 24800 nM

COc1cc2c(NC3CC4(CCN(C(C)C)CC4)C3)cc(-c3ccc(C)o3)nc2cc1OC1CC2(C1)CN(C)C2 (stereo not drawn)
LC50 (THLE-2): 4650 nM

COc1cc2c(NCC3CCN(C)CC3)cc(-c3ccc(C)o3)nc2cc1OCCCN1CCCC1
LC50 (THLE-2): 1300 nM

COc1cc2c(NC3CC4(CCN(C)C4)C3)cc(-c3ccc(C)o3)nc2cc1OCCCN1CCCC1 (stereo not drawn)
LC50 (THLE-2): 8380 nM
